Patent US20150218173A1, “SUBSTITUTED INDAZOL-PYRROLOPYRIMIDINES USEFUL IN THE TREATMENT OF HYPERFOLIFERATIVE DISORDERS” (BAYER PHARMA AKTIENGESELLSCHAFT, priority 2012, published 2015)

Molecular target: T1, human full-length MKNK1 (Homo sapiens, UniProt Q9BUB5, T385D)
T1 construct: GST (N); purchased Carna Biosciences 02-145; host or cells: insect cells (baculovirus expression system)
Assay: MKNK1 kinase high ATP assay (TR-FRET)
Format: biochemical
Conditions: high ATP (2 mM final), 15 min preincubation with enzyme
Procedure: MKNK1-inhibitory activity at high ATP of compounds of the present invention after their preincubation with MKNK1 was quantified employing the TR-FRET-based MKNK1 high ATP assay as described in the following paragraphs.
A recombinant fusion protein of Glutathione-S-Transferase (GST, N-terminally) and human full-length MKNK1 (amino acids 1-424 and T344D of accession number BAA 19885.1), expressed in insect cells using baculovirus expression system and purified via glutathione sepharose affinity chromatography, was purchased from Carna Biosciences (product no 02-145) and used as enzyme. As substrate for the kinase reaction the biotinylated peptide biotin-Ahx-IKKRKLTRRKSLKG (C-terminus in amide form) was used, which can be purchased e.g. from the company Biosyntan (Berlin-Buch, Germany).
For the assay 50 nL of a 100 fold concentrated solution of the test compound in DMSO was pipetted into a black low volume 384 well microtiter plate (Greiner Bio-One, Frickenhausen, Germany), 2 μL of a solution of MKNK1 in aqueous assay buffer [50 mM HEPES pH 7.5, 5 mM MgCl2, 1.0 mM dithiothreitol, 0.005% (v/v) Nonidet-P40 (Sigma)] was added and the mixture was incubated for 15 min at 22° C. to allow pre-binding of the test compounds to the enzyme before the start of the kinase reaction. Then the kinase reaction was started by the addition of 3 μL of a solution of adenosine-tri-phosphate (ATP, 3.3 mM=>final conc. in the 5 μL assay volume is 2 mM) and substrate (0.1 μM=>final conc. in the 5 μL assay volume is 0.06 μM) in assay buffer and the resulting mixture was incubated for a reaction time of 30 min at 22° C. The concentration of MKNK1 was adjusted depending of the activity of the enzyme lot and was chosen appropriate to have the assay in the linear range, typical concentrations were in the range of 0.003 μg/mL. The reaction was stopped by the addition of 5 μL of a solution of TR-FRET detection reagents (5 nM streptavidine-XL665 [Cisbio Bioassays, Codolet, France] and 1 nM anti-ribosomal protein S6 (pSer236)-antibody from Invitrogen [#44921G] and 1 nM LANCE EU-W1024 labeled ProteinG [Perkin-Elmer, product no. AD0071]) in an aqueous EDTA-solution (100 mM EDTA, 0.1% (w/v) bovine serum albumin in 50 mM HEPES pH 7.5).
The resulting mixture was incubated for 1 h at 22° C. to allow the formation of complex between the phosphorylated biotinylated peptide and the detection reagents. Subsequently the amount of phosphorylated substrate was evaluated by measurement of the resonance energy transfer from the Eu-chelate to the streptavidine-XL. Therefore, the fluorescence emissions at 620 nm and 665 nm after excitation at 350 nm were measured in a TR-FRET reader, e.g. a Rubystar (BMG Labtechnologies, Offenburg, Germany) or a Viewlux (Perkin-Elmer). The ratio of the emissions at 665 nm and at […] was taken as the measure for the amount of phosphorylated substrate. The data were normalised (enzyme reaction without inhibitor=0% inhibition, all other assay components but no enzyme=100% inhibition).

T1 sequence (Q9BUB5 1-424 isoform Q9BUB5-2 T344D): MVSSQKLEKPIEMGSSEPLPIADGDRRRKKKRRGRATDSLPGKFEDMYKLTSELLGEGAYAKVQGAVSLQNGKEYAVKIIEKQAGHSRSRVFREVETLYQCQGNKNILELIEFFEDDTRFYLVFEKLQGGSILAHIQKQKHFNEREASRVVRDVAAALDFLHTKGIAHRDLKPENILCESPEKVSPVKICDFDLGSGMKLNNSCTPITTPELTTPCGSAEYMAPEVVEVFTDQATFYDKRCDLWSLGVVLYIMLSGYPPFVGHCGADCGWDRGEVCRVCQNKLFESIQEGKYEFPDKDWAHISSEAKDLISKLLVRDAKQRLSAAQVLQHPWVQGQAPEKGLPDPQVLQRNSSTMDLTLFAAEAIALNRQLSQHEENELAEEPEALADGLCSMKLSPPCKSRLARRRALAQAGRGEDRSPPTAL

Row | Compound | IC50 [nM]
1 | Cc1cc2c(Nc3ccc4[nH]ncc4c3)ncnc2[nH]1 [Example 7, N-(1H-Indazol-5-yl)-6-methyl-7H-pyrrolo[2,3-d]pyrimidin-4-amine] | 31
2 | Cc1c(C(=O)O)[nH]c2ncnc(Nc3ccc4[nH]ncc4c3)c12 [Example 32, 4-(1H-Indazol-5-ylamino)-5-methyl-7H-pyrrolo[2,3-d]pyrimidine-6-carboxylic acid] | 18
3 | c1ccc(-c2c[nH]c3ncnc(Nc4ccc5[nH]ncc5c4)c23)cc1 [Example 15, N-(1H-Indazol-5-yl)-5-phenyl-7H-pyrrolo[2,3-d]pyrimidin-4-amine] | 16
4 | Fc1ccc(-c2c[nH]c3ncnc(Nc4ccc5[nH]ncc5c4)c23)cc1 [Example 12, 5-(4-Fluorophenyl)-N-(1H-indazol-5-yl)-7H-pyrrolo[2,3-d]pyrimidin-4-amine] | 16
5 | c1nc(Nc2ccc3[nH]ncc3c2)c2cc(C3CCOCC3)[nH]c2n1 [Example 24, N-(1H-Indazol-5-yl)-6-(tetrahydro-2H-pyran-4-yl)-7H-pyrrolo[2,3-d]pyrimidin-4-amine] | 29
6 | CCOC(=O)c1cc2c(Nc3ccc4[nH]ncc4c3)ncnc2[nH]1 [Example 4, Ethyl 4-(1H-indazol-5-ylamino)-7H-pyrrolo[2,3-d]pyrimidine-6-carboxylate] | 25
7 | O=C(c1[nH]c2ncnc(Nc3ccc4[nH]ncc4c3)c2c1Br)N1CCOCC1 [Example 44, [5-Bromo-4-(1H-indazol-5-ylamino)-7H-pyrrolo[2,3-d]pyrimidin-6-yl](morpholin-4-yl)methanone] | 48
8 | CCc1[nH]c2ncnc(Nc3ccc4[nH]ncc4c3)c2c1C [Example 1, 6-Ethyl-N-(1H-indazol-5-yl)-5-methyl-7H-pyrrolo[2,3-d]pyrimidin-4-amine] | 58
9 | O=C(c1[nH]c2ncnc(Nc3ccc4[nH]ncc4c3)c2c1Br)N1CCCCC1 [Example 45, [5-Bromo-4-(1H-indazol-5-ylamino)-7H-pyrrolo[2,3-d]pyrimidin-6-yl](piperidin-1-yl)methanone] | 45
10 | CCc1c[nH]c2ncnc(Nc3ccc4[nH]ncc4c3)c12 [Example 40, 5-Ethyl-N-(1H-indazol-5-yl)-7H-pyrrolo[2,3-d]pyrimidin-4-amine] | 29
11 | Clc1cc2c(Nc3ccc4[nH]ncc4c3)ncnc2[nH]1 [Example 28, 6-Chloro-N-(1H-indazol-5-yl)-7H-pyrrolo[2,3-d]pyrimidin-4-amine] | 32
12 | CC(C)c1cc2c(Nc3ccc4[nH]ncc4c3)ncnc2[nH]1 [Example 19, N-(1H-Indazol-5-yl)-6-(propan-2-yl)-7H-pyrrolo[2,3-d]pyrimidin-4-amine] | 39
13 | C[C@H]1COCCN1C(=O)c1[nH]c2ncnc(Nc3ccc4[nH]ncc4c3)c2c1Br [Example 43, [5-Bromo-4-(1H-indazol-5-ylamino)-7H-pyrrolo[2,3-d]pyrimidin-6-yl][(3S)-3-methylmorpholin-4-yl]methanone] | 75
14 | CC(C)Cc1[nH]c2ncnc(Nc3ccc4[nH]ncc4c3)c2c1C(C)C [Example 39, N-(1H-Indazol-5-yl)-6-(2-methylpropyl)-5-(propan-2-yl)-7H-pyrrolo[2,3-d]pyrimidin-4-amine] | 21
15 | CCCc1[nH]c2ncnc(Nc3ccc4[nH]ncc4c3)c2c1CC [Example 34, 5-Ethyl-N-(1H-indazol-5-yl)-6-propyl-7H-pyrrolo[2,3-d]pyrimidin-4-amine] | 13
16 | c1ccc(CCc2cc3c(Nc4ccc5[nH]ncc5c4)ncnc3[nH]2)cc1 [Example 26, N-(1H-Indazol-5-yl)-6-(2-phenylethyl)-7H-pyrrolo[2,3-d]pyrimidin-4-amine] | 80
17 | Cc1c[nH]c2ncnc(Nc3ccc4[nH]ncc4c3)c12 [Example 18, N-(1H-Indazol-5-yl)-5-methyl-7H-pyrrolo[2,3-d]pyrimidin-4-amine] | 22

Stronger by IC50, values ahead:

Row | IC50 [nM] | Compound
18 | 6 | c1cc(-c2c[nH]c3ncnc(Nc4ccc5[nH]ncc5c4)c23)ccn1 [Example 14, N-(1H-Indazol-5-yl)-5-(pyridin-4-yl)-7H-pyrrolo[2,3-d]pyrimidin-4-amine]
19 | 3 | CCOC(=O)c1[nH]c2ncnc(Nc3ccc4[nH]ncc4c3)c2c1Br [Example 30, Ethyl 5-bromo-4-(1H-indazol-5-ylamino)-7H-pyrrolo[2,3-d]pyrimidine-6-carboxylate]
20 | 2 | Cc1ccc(S(=O)(=O)c2cc3c(Nc4ccc5[nH]ncc5c4)ncnc3[nH]2)cc1 [Example 37, N-(1H-Indazol-5-yl)-6-[(4-methylphenyl)sulfonyl]-7H-pyrrolo[2,3-d]pyrimidin-4-amine]
21 | 8 | O=C(NC1CCOCC1)c1cc2c(Nc3ccc4[nH]ncc4c3)ncnc2[nH]1 [Example 25, 4-(1H-Indazol-5-ylamino)-N-(tetrahydro-2H-pyran-4-yl)-7H-pyrrolo[2,3-d]pyrimidine-6-carboxamide]
22 | 5 | CN(C)CCCNC(=O)c1cc2c(Nc3ccc4[nH]ncc4c3)ncnc2[nH]1 [Example 27, N-[3-(Dimethylamino)propyl]-4-(1H-indazol-5-ylamino)-7H-pyrrolo[2,3-d]pyrimidine-6-carboxamide]
23 | 8 | O=C(c1cc2c(Nc3ccc4[nH]ncc4c3)ncnc2[nH]1)N1CCCC1 [Example 21, [4-(1H-Indazol-5-ylamino)-7H-pyrrolo[2,3-d]pyrimidin-6-yl](pyrrolidin-1-yl)methanone]
24 | 1 | O=S(=O)(c1ccccc1)c1cc2c(Nc3ccc4[nH]ncc4c3)ncnc2[nH]1 [Example 36, N-(1H-Indazol-5-yl)-6-(phenylsulfonyl)-7H-pyrrolo[2,3-d]pyrimidin-4-amine]
25 | 10 | Brc1c[nH]c2ncnc(Nc3ccc4[nH]ncc4c3)c12 [Example 2, 5-Bromo-N-(1H-indazol-5-yl)-7H-pyrrolo[2,3-d]pyrimidin-4-amine]
26 | 9 | O=C(NCCO)c1cc2c(Nc3ccc4[nH]ncc4c3)ncnc2[nH]1 [Example 20, N-(2-Hydroxyethyl)-4-(1H-indazol-5-ylamino)-7H-pyrrolo[2,3-d]pyrimidine-6-carboxamide]
27 | 6 | C(=C\c1cc2c(Nc3ccc4[nH]ncc4c3)ncnc2[nH]1)/c1ccccc1 [Example 10, N-(1H-Indazol-5-yl)-6-[(E)-2-phenylethenyl]-7H-pyrrolo[2,3-d]pyrimidin-4-amine]
28 | 9 | CN1CCN(C(=O)c2cc3c(Nc4ccc5[nH]ncc5c4)ncnc3[nH]2)CC1 [Example 23, [4-(1H-Indazol-5-ylamino)-7H-pyrrolo[2,3-d]pyrimidin-6-yl](4-methylpiperazin-1-yl)methanone]
29 | 5 | CCCCNC(=O)c1cc2c(Nc3ccc4[nH]ncc4c3)ncnc2[nH]1 [Example 22, N-Butyl-4-(1H-indazol-5-ylamino)-7H-pyrrolo[2,3-d]pyrimidine-6-carboxamide]
30 | 4 | C=C(C)c1cc2c(Nc3ccc4[nH]ncc4c3)ncnc2[nH]1 [Example 8, N-(1H-indazol-5-yl)-6-(prop-1-en-2-yl)-7H-pyrrolo[2,3-d]pyrimidin-4-amine]
31 | 1 | O=S(=O)(c1ccc(Cl)cc1)c1cc2c(Nc3ccc4[nH]ncc4c3)ncnc2[nH]1 [Example 38, 6-[(4-Chlorophenyl)sulfonyl]-N-(1H-indazol-5-yl)-7H-pyrrolo[2,3-d]pyrimidin-4-amine]
32 | 11 | CS(=O)(=O)c1cc2c(Nc3ccc4[nH]ncc4c3)ncnc2[nH]1 [Example 5, N-(1H-Indazol-5-yl)-6-(methylsulfonyl)-7H-pyrrolo[2,3-d]pyrimidin-4-amine]
33 | 9 | c1cncc(-c2c[nH]c3ncnc(Nc4ccc5[nH]ncc5c4)c23)c1 [Example 13, N-(1H-Indazol-5-yl)-5-(pyridin-3-yl)-7H-pyrrolo[2,3-d]pyrimidin-4-amine]
34 | 5 | O=C(O)c1[nH]c2ncnc(Nc3ccc4[nH]ncc4c3)c2c1Br [Example 31, 5-Bromo-4-(1H-indazol-5-ylamino)-7H-pyrrolo[2,3-d]pyrimidine-6-carboxylic acid]
35 | 2 | C1=C(c2cc3c(Nc4ccc5[nH]ncc5c4)ncnc3[nH]2)CCOC1 [Example 16, 6-(3,6-Dihydro-2H-pyran-4-yl)-N-(1H-indazol-5-yl)-7H-pyrrolo[2,3-d]pyrimidin-4-amine]
